Measurements published in patent US8088776B2 (Eli Lilly and Company, priority 2006, dated 2012).
pIC50: −log10 of the molar value.

Key:
[1] = molecular target: recombinant human 11β-HSD type 1 enzyme (Homo sapiens, UniProt P28845); experiment: 11β-HSD Type 1 Enzyme Assay (NADPH fluorescence); format: biochemical; settings: three hour incubation, read-out: Human 11-βHSD1 IC50
Method: 11β-HSD Type 1 Enzyme Assay
Human 11β-HSD type 1 activity is measured by assaying NADPH production by fluorescence assay. Solid compounds are dissolved in DMSO to a concentration of 10 mM. Twenty microliters of each are then transferred to a column of a 96-well polypropylene Nunc plate where they are further diluted 50-fold followed by subsequent two-fold titration, ten times across the plate with additional DMSO using a Tecan Genesis 200 automated system. Plates are then transferred to a Tecan Freedom 200 system with an attached Tecan Temo 96-well head and an Ultra 384 plate reader. Reagents are supplied in 96-well polypropylene Nunc plates and are dispensed individually into black 96-well Molecular Devices High Efficiency assay plates (40 μL/well capacity) in the following fashion: 9 μL/well of substrate (2.22 mM NADP, 55.5 μM Cortisol, 10 mM Tris, 0.25% Prionex, 0.1% Triton X100), 3 μL/well of water to compound wells or 3 μL to control and standard wells, 6 μL/well recombinant human 11β-HSD type 1 enzyme, 2 μL/well of compound dilutions. […] Final DMSO concentration is 0.5% for all compounds, controls and standards. […] Plates are then shaken once more for 15 seconds then placed into an Ultra 384 microplate reader (355EX/460EM) for detection of NADPH fluorescence.

[2] = molecular target: T1, 11β-HSD1 in primary human aortic smooth muscle cells (AoSMC) (Homo sapiens, UniProt P28845); experiment: Human Aortic Smooth Muscle Cell Assay (cortisone to cortisol conversion); format: cell-based; settings: AoSMC induced with hTNFα; cortisol by time resolved immunoassay
T1 construct: containing 12 ng/mL hTNFα to induce expression of 11β-HSD1; endogenous in cells; host or cells: primary human aortic smooth muscle cells (AoSMC), induced with hTNFα
T1 sequence (P28845 whole entry): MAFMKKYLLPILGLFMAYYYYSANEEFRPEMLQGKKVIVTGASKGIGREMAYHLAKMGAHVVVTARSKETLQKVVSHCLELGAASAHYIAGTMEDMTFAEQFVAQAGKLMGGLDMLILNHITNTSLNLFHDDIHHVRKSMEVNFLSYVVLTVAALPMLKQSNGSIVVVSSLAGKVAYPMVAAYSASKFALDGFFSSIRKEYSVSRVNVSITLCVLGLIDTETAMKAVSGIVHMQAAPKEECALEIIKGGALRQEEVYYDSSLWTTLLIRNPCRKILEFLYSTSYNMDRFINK
Method: Human Aortic Smooth Muscle Cell Assay
Primary human aortic smooth muscle cells (AoSMC) are cultured in 5% FBS growth medium to a passage number of 6, then pelleted by centrifugation and resuspended at a density of 9×10^4 cells/mL in 0.5% FBS assay medium containing 12 ng/mL hTNFα to induce expression of 11β-HSD1. Cells are seeded into 96-well tissue culture assay plates at 100 μL/well (9×10^3 cells/well) and incubated for 48 hours at 37° C., 5% CO2. Following induction, cells are incubated for 4 hours at 37° C., 5% CO2 in assay medium containing test compounds then treated with 10 μL/well of 10 μM cortisone solubilized in assay medium, and incubated for 16 hours at 37° C., 5% CO2. Medium from each well is transferred to a plate for subsequent analysis of cortisol using a competitive fluorescence resonance time resolved immunoassay. In solution, an allophycocyanin (APC)-cortisol conjugate and free cortisol analyte compete for binding to a mouse anti-cortisol antibody/Europium (Eu)-anti mouse IgG complex. Higher levels of free cortisol result in diminishing energy transfer from the Europium-IgG to the APC-cortisol complex resulting in less APC fluorescence. Fluorescent intensities for Europium and APC are measured using a LJL Analyst AD. Europium and APC excitation is measured using 360 nm excitation and 615 nm and 650 nm emission filters respectively. Time resolved parameters for Europuium were 1000 μs integration time with a 200 μs delay. APC parameters are set at 150 μs integration time with a 50 μs delay. Fluorescent intensities measured for APC are modified by dividing by the Eu fluorescence (APC/Eu). This ratio is then used to determine the unknown cortisol concentration by interpolation using a cortisol standard curve fitted with a 4-parameter logistic equation. These concentrations are then used to determine compound activity by plotting concentration versus % inhibition, fitting with a 4-parameter curve and reporting the IC50.

[3] = system: cortisone to cortisol conversion (11β-HSD1) in male C57BL/6 mice; experiment: Acute In Vivo Cortisone Conversion Assay; settings: oral dose of 10 mg/kg, cortisone challenge 16 hours post dose, serum cortisol
Method: Acute In Vivo Cortisone Conversion Assay
In general, compounds are dosed orally into mice, the mice are challenged with a subcutaneous injection of cortisone at a set timepoint after compound injection, and the blood of each animal is collected some time later. Separated serum is then isolated and analyzed for levels of cortisone and cortisol by LC-MS/MS, followed by calculation of mean cortisol and percent inhibition of each dosing group. Specifically, male C57BL/6 mice are obtained from Harlan Sprague Dawley at average weight of 25 grams. Exact weights are taken upon arrival and the mice randomized into groups of similar weights. Compounds are prepared in 1% w-w HEC, 0.25% w-w polysorbate 80, 0.05% w-w Dow Corning antifoam #1510-US at various doses based on assumed average weight of 25 grams. Compounds are dosed orally, 200 μl per animal, followed by a subcutaneous dose, 200 μl per animal, of 30 mg/kg cortisone at 1 to 24 hours post compound dose. At 10 minutes post cortisone challenge, each animal is euthanized for 1 minute in a CO2 chamber, followed by blood collection via cardiac puncture into serum separator tubes. Once fully clotted, tubes are spun at 2500×g, 4° C. for 15 minutes, the serum transferred to wells of 96-well plates (Corning Inc, Costar #4410, cluster tubes, 1.2 ml, polypropylene), and the plates are frozen at −20° C. until analysis by LC-MS/MS. […]

Sequence of recombinant human 11β-HSD type 1 enzyme (P28845 whole entry): as above

Row | Compound | pIC50 [2] | pIC50 [1] | % Inhibition after 16 hours (dose of 10 (mg/kg)) [3]
1 | O=C(c1ccc(-c2cc(Cl)c(C[C@@H]3CCN(C4CCOCC4)C3=O)c(Cl)c2)cc1)N1CCS(=O)(=O)CC1 [Example 99, (R)-3-[3,5-Dichloro-4′-(1,1-dioxo-116-thiomorpholine-4-carbonyl)-biphenyl-4-ylmethyl]-1-(tetrahydro-pyran-4-yl)-pyrrolidin-2-one] | 7.14 |  | 
2 | O=C(c1ccc(-c2cc(Cl)c(CC3CCN(C4CCCCC4)C3=O)c(Cl)c2)cc1)N1CCOCC1 (stereo not shown) [Example 4, 1-Cyclohexyl-3-[3,5-dichloro-4′-(morpholine-4-carbonyl)-biphenyl-4-ylmethyl]-pyrrolidin-2-one] | 8.37 |  | 
3 | O=C(c1ccc(-c2cc(Cl)c(CC3CCN(C4CCCCC4)C3=O)c(Cl)c2)cc1)N1CCN(CCF)CC1 (single isomer, unassigned) [Example 62, 1-cyclohexyl-3-{3,5-dichloro-4′-[4-(2-fluoro-ethyl)-piperazine-1-carbonyl]-biphenyl-4-ylmethyl}-pyrrolidin-2-one] |  | 6.94 | 85%
4 | O=C(c1ccc(-c2cc(Cl)c(C[C@@H]3CCN(C4CCOCC4)C3=O)c(Cl)c2)cc1)N1CCC(C(F)(F)F)CC1 [Example 95, (R)-3-[3,5-dichloro-4′-(4-trifluoromethyl-piperidine-1-carbonyl)-biphenyl-4-ylmethyl]-1-(tetrahydro-pyran-4-yl)-pyrrolidin-2-one] |  |  | 80%

Continued by rising pIC50 [2], values first:

Row | pIC50 [2] | Compound | pIC50 [1] | % Inhibition after 16 hours (dose of 10 (mg/kg)) [3]
5 | 7.43 | O=C(c1ccc(-c2cc(Cl)c(C[C@@H]3CCN(C4CC=CCC4)C3=O)c(Cl)c2)cc1)N1CCC(C(F)(F)F)CC1 (stereo partly drawn) [Example 92, (R)-1-cyclohex-3-enyl-3-[3,5-dichloro-4′-(4-trifluoromethyl-piperidine-1-carbonyl)-biphenyl-4-ylmethyl]-pyrrolidin-2-one] | 6.20 | 
6 | 7.94 | O=C(c1ccc(-c2cc(Cl)c(CC3CCN(C4CCCCC4)C3=O)c(Cl)c2)cc1)N1CCNCC1 (stereo not shown) [Example 49, 1-cyclohexyl-3-[3,5-dichloro-4′-(piperazine-1-carbonyl)-biphenyl-4-ylmethyl]-pyrrolidin-2-one] |  | 
7 | 8.19 | COCCN(CCOC)C(=O)c1ccc(-c2cc(Cl)c(CC3CCN(C4CCCCC4)C3=O)c(Cl)c2)cc1 (stereo not shown) [Example 5] |  | 
8 | 8.22 | O=C(c1ccc(-c2cc(Cl)c(CC3CCN([C@H]4CC[C@@H](O)CC4)C3=O)c(Cl)c2)cc1)N1CCS(=O)(=O)CC1 (stereo partly drawn) [Example 74, 3-[3,5-Dichloro-4′-(1,1-dioxo-1-lambda*6*-thiomorpholine-4-carbonyl)-biphenyl-4-ylmethyl]-cis-1-(4-hydroxy-cyclohexyl)-pyrrolidin-2-one] |  | 
